According to ChEMBL document CHEMBL5620412, “Discovery of benzofuran-2-carboxylic acid derivatives as lymphoid tyrosine phosphatase (LYP) inhibitors for cancer immunotherapy” (Eur J Med Chem, 2023):
Calls of active or inactive are those of the source. The rule behind the calls is not given here.

What was measured:
Jurkat T [1] = experiment: Activation of TCR signaling in human Jurkat T cells assessed as increase in ERK phosphorylation preincubated with compound for 1 hrs followed by anti-CD3 stimulation and measured after 45 mins by immunoblot analysis; format: cell-based; settings: filed as activator, time 105.0 min
Jurkat T [2] = experiment: Activation of TCR signaling in […] transfected human Jurkat T cells assessed as increase in LCK phosphorylation preincubated with compound for 1 hrs followed by anti-CD3 stimulation and measured after 45 mins by immunoblot analysis; format: cell-based; settings: time 105.0 min
MC-38 [3] = experiment: Antitumor activity against mouse MC-38 cells implanted in syngenic C57BL/6J mouse model assessed as tumor growth inhibition at 50 mg/kg, IG administered twice daily for 14 days relative to control; format: functional; settings: MC-38, po, 336 h, time 14 day, read-out: TGI
MC-38 [4] = experiment: Antitumor activity against mouse MC-38 cells implanted in syngenic C57BL/6J mouse model at 50 mg/kg, IG administered twice daily for 14 days by H&E staining based analysis; format: functional, organism-based; settings: time 14.0 day
MC-38 [5] = experiment: Antiproliferative activity against mouse MC-38 cells assessed as reduction in cell viability upto 4 uM incubated for 72 hrs by CCK8 assay; format: functional, cell-based
MC-38 [6] = experiment: Antitumor immunity against mouse MC-38 cells implanted in syngenic C57BL/6J mouse model assessed as increase in CD45+ cell proportion in tumor at 50 mg/kg, IG administered twice daily for 14 days by flow cytometric analysis; format: functional, organism-based; settings: time 14.0 day
MC-38 [7] = experiment: Antitumor immunity against mouse MC-38 cells implanted in syngenic C57BL/6J mouse model assessed as increase in CD4+ T cell proportion in tumor at 50 mg/kg, IG administered twice daily for 14 days by flow cytometric analysis; format: functional, organism-based; settings: time 14.0 day
MC-38 [8] = experiment: Antitumor immunity against mouse MC-38 cells implanted in syngenic C57BL/6J mouse model assessed as increase in CD8+ T cell proportion in tumor at 50 mg/kg, IG administered twice daily for 14 days by flow cytometric analysis; format: functional, organism-based; settings: time 14.0 day
MC-38 [9] = experiment: Antitumor immunity against mouse MC-38 cells implanted in syngenic C57BL/6J mouse model assessed as increase in Ki67 positive CD4+ T cells at 50 mg/kg, IG administered twice daily for 14 days by Ki67 staining based flow cytometric analysis; format: functional, organism-based; settings: time 14.0 day
MC-38 [10] = experiment: Antitumor immunity against mouse MC-38 cells implanted in syngenic C57BL/6J mouse model assessed as increase in Ki67 positive CD8+ T cells at 50 mg/kg, IG administered twice daily for 14 days by Ki67 staining based flow cytometric analysis; format: functional, organism-based; settings: time 14.0 day
MC-38 [11] = experiment: Antitumor immunity against mouse MC-38 cells implanted in syngenic C57BL/6J mouse model assessed as increase in NKT cell proportion at 50 mg/kg, IG administered twice daily for 14 days; format: functional, organism-based; settings: time 14.0 day
MC-38 [12] = experiment: Antitumor immunity against mouse MC-38 cells implanted in syngenic C57BL/6J mouse model assessed as increase in IFN-gamma expression at 50 mg/kg, IG administered twice daily for 14 days; format: functional, organism-based; settings: time 14.0 day
MC-38 [13] = experiment: Antitumor immunity against mouse MC-38 cells implanted in syngenic C57BL/6J mouse model assessed as increase in TNF-alpha expression at 50 mg/kg, IG administered twice daily for 14 days; format: functional, organism-based; settings: time 14.0 day
MC-38 [14] = experiment: Antitumor immunity against mouse MC-38 cells implanted in syngenic C57BL/6J mouse model assessed as increase in M1 tumor associated macrophage proportion in tumor at 50 mg/kg, IG administered twice daily for 14 days by flow cytometric analysis; format: functional, organism-based; settings: time 14.0 day
MC-38 [15] = experiment: Antitumor immunity against mouse MC-38 cells implanted in syngenic C57BL/6J mouse model assessed as inhibition of M2 polarization of tumor associated macrophage in tumor at 50 mg/kg, IG administered twice daily for 14 days by flow cytometric analysis; format: functional, organism-based; settings: time 14.0 day
MC-38 [16] = experiment: Antitumor immunity against mouse MC-38 cells implanted in syngenic C57BL/6J mouse model assessed as increase in M1 tumor associated macrophage proportion in spleen at 50 mg/kg, IG administered twice daily for 14 days by flow cytometric analysis; format: functional, organism-based; settings: time 14.0 day
MC-38 [17] = experiment: Antitumor immunity against mouse MC-38 cells implanted in syngenic C57BL/6J mouse model assessed as inhibition of M2 polarization of tumor associated macrophage in spleen at 50 mg/kg, IG administered twice daily for 14 days by flow cytometric analysis; format: functional, organism-based; settings: time 14.0 day
MC-38 [18] = experiment: Antitumor immunity against mouse MC-38 cells implanted in syngenic C57BL/6J mouse model assessed as upregulation of PD-L1 expression in dendritic cells at 50 mg/kg, IG administered twice daily for 14 days by flow cytometric analysis; format: functional, organism-based; settings: time 14.0 day
MC-38 [19] = experiment: Antitumor immunity against mouse MC-38 cells implanted in syngenic C57BL/6J mouse model assessed as upregulation of PD-L1 expression in macrophages at 50 mg/kg, IG administered twice daily for 14 days by flow cytometric analysis; format: functional, organism-based; settings: time 14.0 day
MC-38 [20] = experiment: Antitumor immunity against mouse MC-38 cells implanted in syngenic C57BL/6J mouse model assessed as upregulation of PD1 expression in CD8+ T cells at 50 mg/kg, IG administered twice daily for 14 days by flow cytometric analysis; format: functional, organism-based; settings: time 14.0 day
[21] = Upregulation of PD-L1 expression in mouse MC-38 cells at 10 uM incubated for 48 hrs by flow cytometric analysis (reference value: 23.3%); format: functional
MC-38 [22] = experiment: Antitumor activity against mouse MC-38 cells implanted in syngenic C57BL/6J mouse model assessed as tumor growth inhibition at 50 mg/kg, IG administered twice daily for 14 days in presence of anti-PD-L1 antibody relative to control; format: functional; settings: MC-38, po, 336 h, time 14 day, read-out: TGI

Compound	Activity (Jurkat T [1])	Activity (Jurkat T [2])	inhibition in vivo at 50 mg/kg (MC-38 [3]) [%]	Activity (MC-38 [4])	Activity (MC-38 [5])	Activity (MC-38 [6])	Activity (MC-38 [7])	Activity (MC-38 [8])	Activity (MC-38 [9])	Activity (MC-38 [10])	Activity (MC-38 [11])	Activity (MC-38 [12])	Activity (MC-38 [13])	Activity (MC-38 [14])	Activity (MC-38 [15])	Activity (MC-38 [16])	Activity (MC-38 [17])	Activity (MC-38 [18])	Activity (MC-38 [19])	Activity (MC-38 [20])	further results
O=C(O)c1cc2cc(N(Cc3ccc(OCc4ccccc4)cc3)S(=O)(=O)c3ccc(-c4ccccc4)cc3)ccc2o1	Active	inactive	65	Active	inactive	Active	Active	Active	Active	Active	Active	Active	Active	Active	Active	Active	Active	Active	Active	Active	Activity [21]: 46.1%; inhibition in vivo at 50 mg/kg (MC-38 [22]): 94.3%
COc1ccc(-c2ccc(CN(c3ccc4oc(C(=O)O)cc4c3)S(=O)(=O)c3ccc(Cl)c([N+](=O)[O-])c3)cc2)cc1	Active	inactive	69.6	Active	inactive	Active	Active	Active	Active	Active	Active	Active	Active	Active	Active	Active	Active	Active	Active	Active	Activity [21]: 37.2%; inhibition in vivo at 50 mg/kg (MC-38 [22]): 94.3%
